# How the values were obtained:
# [1] = (§1) The drug is tested on WLS-007 corresponding to human gut metagenome with ENA study accession number: PRJEB37062 and ENA sample accession number: ERS12561742 for biotransformation under anaerobic condition. The drug concentrations were measured over 9 timepoints collected between 0 and 24 hours of incubation by liquid-chromatography-coupled mass spectrometry (LC–MS); details: 2 µM
# [2] = human gut metagenome, 24 h, 2 µM
# [3] = human gut metagenome, 24 h, 2 µM; remark: listed apart in the source
# [4] = human gut metagenome, 24 h, 2 µM; remark: listed apart in the source
# [5] = as §1, with “WLS-220” for “WLS-007”, “ERS12561769” for “ERS12561742”; details: 2 µM
# [6] = as §1, with “WLS-240” for “WLS-007”, “ERS12561773” for “ERS12561742”; details: 2 µM
# [7] = as §1, with “Z-008” for “WLS-007”, “to” for “to human gut”, “ERS12561808” for “ERS12561742”; details: 2 µM
# [8] = as §1, with “WLS-098” for “WLS-007”, “ERS12561754” for “ERS12561742”; details: 2 µM
# [9] = human gut metagenome, 24 h, 2 µM; remark: listed apart in the source
# [10] = human gut metagenome, 24 h, 2 µM; remark: listed apart in the source
# [11] = as §1, with “Z-020” for “WLS-007”, “rabbit” for “human”, “ERS12561819” for “ERS12561742”; details: 2 µM
# [12] = as §1, with “Z-004” for “WLS-007”, “to” for “to human gut”, “ERS12561804” for “ERS12561742”; details: 2 µM
# [13] = human gut metagenome, 24 h, 2 µM; remark: listed apart in the source
# [14] = as §1, with “WLS-038” for “WLS-007”, “ERS12561745” for “ERS12561742”; details: 2 µM
# [15] = human gut metagenome, 24 h, 2 µM; remark: listed apart in the source
# [16] = human gut metagenome, 24 h, 2 µM; remark: listed apart in the source
# [17] = as §1, with “Z-010” for “WLS-007”, “to” for “to human gut”, “ERS12561810” for “ERS12561742”; details: 2 µM
# [18] = as §1, with “WLS-073” for “WLS-007”, “ERS12561749” for “ERS12561742”; details: 2 µM
# [19] = human gut metagenome, 24 h, 2 µM; remark: listed apart in the source
# [20] = human gut metagenome, 24 h, 2 µM; remark: listed apart in the source
# Also: call rule not given here.
SMILES,Bacterial Biotransformation [1],Bacterial Biotransformation [2],Bacterial Biotransformation [3],Bacterial Biotransformation [4],Bacterial Biotransformation [5],Bacterial Biotransformation [6],Bacterial Biotransformation [7],Bacterial Biotransformation [8],Bacterial Biotransformation [9],Bacterial Biotransformation [10],Bacterial Biotransformation [11],Bacterial Biotransformation [12],Bacterial Biotransformation [13],Bacterial Biotransformation [14],Bacterial Biotransformation [15],Bacterial Biotransformation [16],Bacterial Biotransformation [17],Bacterial Biotransformation [18],Bacterial Biotransformation [19],Bacterial Biotransformation [20]
O=C(O)CCc1nc(-c2ccccc2)c(-c2ccccc2)o1 [OXAPROZIN],Compound metabolized,Compound metabolized,Compound metabolized,Compound metabolized,Compound metabolized,Compound metabolized,Compound NOT metabolized,Compound metabolized,Compound metabolized,Compound metabolized,Compound metabolized,Compound NOT metabolized,Compound metabolized,Compound metabolized,Compound NOT metabolized,Compound metabolized,Compound metabolized,Compound metabolized,Compound metabolized,Compound metabolized
NC(CO)(CO)CO.O=C(c1ccccc1)c1ccc2n1CCC2C(=O)O (stereo not drawn) [KETOROLAC TROMETHAMINE],Compound metabolized,Compound metabolized,Compound metabolized,Compound metabolized,Compound metabolized,Compound metabolized,Compound NOT metabolized,Compound metabolized,Compound metabolized,Compound metabolized,Compound metabolized,Compound NOT metabolized,Compound metabolized,Compound metabolized,Compound metabolized,Compound metabolized,Compound metabolized,Compound metabolized,Compound metabolized,Compound metabolized
C[C@@H]1CC[C@H]2[C@@H](C)C(=O)O[C@@H]3O[C@@]4(C)CC[C@@H]1[C@]32OO4 [ARTEMISININ],Compound metabolized,Compound NOT metabolized,Compound metabolized,Compound metabolized,Compound metabolized,Compound metabolized,,Compound metabolized,Compound metabolized,,Compound metabolized,,Compound metabolized,Compound metabolized,Compound metabolized,Compound metabolized,,Compound metabolized,,Compound metabolized
C#C[C@]1(O)CC[C@H]2[C@@H]3CCC4=Cc5oncc5C[C@]4(C)[C@H]3CC[C@@]21C [DANAZOL],Compound metabolized,Compound metabolized,,,Compound metabolized,Compound metabolized,Compound metabolized,,Compound metabolized,Compound NOT metabolized,Compound NOT metabolized,,,Compound metabolized,,,Compound metabolized,Compound metabolized,,
COc1c2occc2cc2ccc(=O)oc12 [METHOXSALEN],,Compound metabolized,Compound metabolized,Compound metabolized,Compound metabolized,Compound metabolized,Compound metabolized,Compound metabolized,,Compound metabolized,Compound metabolized,Compound metabolized,Compound metabolized,Compound metabolized,Compound metabolized,Compound metabolized,Compound metabolized,,,
CN(C)CCc1c[nH]c2ccc(Cn3cncn3)cc12.O=C(O)c1ccccc1 [RIZATRIPTAN BENZOATE],Compound NOT metabolized,Compound NOT metabolized,Compound NOT metabolized,Compound NOT metabolized,Compound NOT metabolized,Compound NOT metabolized,Compound NOT metabolized,Compound NOT metabolized,Compound NOT metabolized,Compound NOT metabolized,Compound NOT metabolized,Compound NOT metabolized,,Compound NOT metabolized,,Compound NOT metabolized,Compound NOT metabolized,Compound NOT metabolized,Compound NOT metabolized,Compound NOT metabolized
COc1ccc2[nH]c([S+]([O-])Cc3ncc(C)c(OC)c3C)nc2n1 (stereo not drawn) [TENATOPRAZOLE],Compound metabolized,Compound metabolized,,Compound metabolized,Compound metabolized,Compound metabolized,Compound metabolized,Compound metabolized,Compound metabolized,Compound NOT metabolized,Compound NOT metabolized,Compound metabolized,Compound NOT metabolized,Compound metabolized,Compound metabolized,Compound metabolized,Compound metabolized,Compound metabolized,,Compound NOT metabolized
CC(C)OC(=O)C(C)(C)Oc1ccc(C(=O)c2ccc(Cl)cc2)cc1 [FENOFIBRATE],,Compound NOT metabolized,Compound NOT metabolized,Compound NOT metabolized,Compound metabolized,Compound NOT metabolized,Compound metabolized,Compound metabolized,Compound metabolized,Compound metabolized,Compound metabolized,Compound metabolized,Compound metabolized,Compound NOT metabolized,Compound metabolized,Compound NOT metabolized,Compound metabolized,Compound NOT metabolized,Compound metabolized,Compound metabolized
Cc1nc2n(c(=O)c1CCN1CCC(c3noc4cc(F)ccc34)CC1)CCCC2 [RISPERIDONE],Compound metabolized,Compound metabolized,Compound metabolized,Compound metabolized,Compound metabolized,Compound metabolized,Compound metabolized,,Compound NOT metabolized,Compound metabolized,Compound metabolized,Compound metabolized,Compound metabolized,Compound metabolized,Compound metabolized,Compound metabolized,Compound metabolized,,Compound metabolized,Compound NOT metabolized
Cc1nc2n(c(=O)c1CCN1CCC(c3noc4cc(F)ccc34)CC1)CCCC2O (stereo not drawn) [PALIPERIDONE],Compound metabolized,Compound NOT metabolized,Compound metabolized,Compound metabolized,Compound metabolized,Compound metabolized,Compound NOT metabolized,Compound metabolized,Compound metabolized,Compound metabolized,Compound NOT metabolized,,Compound metabolized,Compound metabolized,Compound metabolized,Compound metabolized,Compound NOT metabolized,Compound metabolized,Compound metabolized,Compound metabolized
